Tests used:
Test in all cases: relative viability (nuclei count vs DMSO), 5 days (fraction); higher = more cells survive
[1] = compound: COc1cc2ncn(-c3cc(OCc4ccccc4C(F)(F)F)c(C(N)=O)s3)c2cc1OC + CS(=O)(=O)CCNCc1ccc(-c2ccc3ncnc(Nc4ccc(OCc5cccc(F)c5)c(Cl)c4)c3c2)o1 [Lapatinib] (partner 2 µM)
How it was run: (§1)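 Medians of duplicate plates are given as relative viability. That measure is the nuclei count in treated wells divided by the count in vehicle wells. Counts were taken on 4× images of lung cancer cell lines in 1536-well plates, 5 days after pin-tool dosing the day after seeding with one drug alone or a fixed anchor-drug dose plus five library-drug doses (not always all listed) in √10 steps.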

[2] = compound: COc1cc2ncn(-c3cc(OCc4ccccc4C(F)(F)F)c(C(N)=O)s3)c2cc1OC + C[C@@H](Oc1cc(-c2cnn(C3CCNCC3)c2)cnc1N)c1c(Cl)ccc(F)c1Cl [Crizotinib] (partner 1 µM)
How it was run: as §1

[3] = compound: COc1cc2ncn(-c3cc(OCc4ccccc4C(F)(F)F)c(C(N)=O)s3)c2cc1OC + Cc1cc(Nc2cc(N3CCN(C)CC3)nc(Sc3ccc(NC(=O)C4CC4)cc3)n2)n[nH]1 [Tozasertib] (partner 0.1 µM)
How it was run: as §1

[4] = compound: COc1cc2ncn(-c3cc(OCc4ccccc4C(F)(F)F)c(C(N)=O)s3)c2cc1OC + Nc1ncn([C@H]2C[C@H](O)[C@@H](CO)O2)c(=O)n1 [Decitabine] (partner 2 µM)
How it was run: as §1

| Cell Line | relative viability ([1]; first compound 0.05 µM) | relative viability ([1]; first compound 0.1581 µM) | relative viability ([1]; first compound 0.5 µM) | relative viability ([1]; first compound 5 µM) | relative viability ([2]; first compound 0.05 µM) | relative viability ([2]; first compound 0.1581 µM) | relative viability ([2]; first compound 0.5 µM) | relative viability ([2]; first compound 5 µM) | relative viability ([3]; first compound 0.05 µM) | relative viability ([3]; first compound 0.1581 µM) | relative viability ([3]; first compound 0.5 µM) | relative viability ([3]; first compound 1.581 µM) | relative viability ([3]; first compound 5 µM) | relative viability ([4]; first compound 0.05 µM) | relative viability ([4]; first compound 0.1581 µM) | relative viability ([4]; first compound 0.5 µM) | relative viability ([4]; first compound 1.581 µM) | relative viability ([4]; first compound 5 µM) | relative viability ([1]; first compound 1.581 µM) | relative viability ([2]; first compound 1.581 µM) |
| --- | --- | --- | --- | --- | --- | --- | --- | --- | --- | --- | --- | --- | --- | --- | --- | --- | --- | --- | --- | --- |
| PC-14 | 0.33 | 0.353 | 0.318 | 0.278 | 0.83 | 0.828 | 0.564 | 0.411 | 0.649 | 0.715 | 0.525 | 0.163 | 0.354 | 0.272 | 0.195 | 0.141 | 0.0475 | 0.0694 |  |  |
| RERF-LC-KJ | 0.939 | 0.987 | 0.839 | 0.689 | 0.813 | 0.887 | 0.766 | 0.545 | 0.476 | 0.646 | 0.247 | 0.248 | 0.257 | 0.802 | 0.633 | 0.27 | 0.198 | 0.25 |  |  |
| SK-LU-1 | 0.833 | 0.842 | 0.427 | 0.197 | 0.935 | 0.832 | 0.411 | 0.313 | 0.306 | 0.301 | 0.285 | 0.225 | 0.206 | 0.663 | 0.487 | 0.494 | 0.317 | 0.304 | 0.246 | 0.296 |
| SK-MES-1 | 0.445 | 0.459 | 0.482 | 0.335 | 0.971 | 0.861 | 0.627 | 0.476 | 0.586 | 0.631 | 0.241 | 0.174 | 0.195 | 0.371 | 0.393 | 0.273 | 0.166 | 0.172 |  |  |
| SW 1573 | 1.14 | 0.445 | 0.918 | 0.739 | 0.786 | 0.859 | 0.514 | 0.293 | 0.154 | 0.179 | 0.192 | 0.174 | 0.139 | 0.572 | 0.413 | 0.223 | 0.0976 | 0.126 | 0.217 | 0.134 |
| UMC-11 | 0.991 | 0.917 | 0.348 | 0.136 | 0.627 | 0.484 | 0.141 | 0.102 | 0.194 | 0.192 | 0.193 | 0.278 | 0.253 | 0.309 | 0.595 | 0.265 | 0.253 | 0.251 | 0.195 | 0.0823 |

— the supplement of paper PMC10307832
